Consider two compounds from PMC5808567 (Journal of medicinal chemistry, 2018).

A short description of data set [1]: Metal chelation by UV spectroscopy, Fe3+. The note with it: 100 µM E-3a, 10 mM ammonium acetate pH 7.0, anaerobic, metal 100 µM-5 mM. In kind it is physicochemical.
Data set [2] deals with normal mobilized peripheral blood progenitor cells. As to conditions: cited from earlier work.
Data set [3] concerns HCT116 and MDA-MB-231 cell lines. The data set is described as follows: Growth inhibition assay, both cancer cell lines. The note with it: Homo sapiens, 72 h, read-out: growth inhibition IC50. Type of data set: cell-based.

Molecules are shown by their SMILES.

With `O=C(N/N=C/c1c(O)ccc2ccccc12)c1ccccc1O` [E-3a, 2-hydroxy-N'-((2-hydroxynaphthalen-1-yl)methylene)benzohydrazide], the “chelation of Fe^3+” value in data set [1] is recorded as “does not chelate Fe^3+ ions”. Moreover, the “cytotoxicity against normal cells” value in data set [2] is listed as “little cytotoxicity”.

Take `Nc1ccn([C@@H]2O[C@H](CO)[C@@H](O)C2(F)F)c(=O)n1` [gemcitabine]: the IC50 (commonly the concentration that inhibits the measured activity by half) in data set [3] lay within 0.03 to 0.1 µM.
